# Laboratory results taken from PMC6273152, “Design, Synthesis, and Biological Evaluation of Novel PARP-1 Inhibitors Based on a 1H-Thieno[3,4-d] Imidazole-4-Carboxamide Scaffold” (Molecules, 2016).
# Where two headings read alike, the source gives them in different places.
# How the values were obtained:
# PARP-1 enzyme = biological target: T1, PARP-1 enzyme (Homo sapiens, UniProt P09874); experiment: PARP-1 enzymatic inhibition assay (Trevigen 96-well kit, fluorescence); format: biochemical; details: logit method, six concentrations, read-out: IC50 (PARP-1 enzyme inhibitory activity)
# T1 construct: purchased Trevigen 4690-096-K
# Method: All target compounds were evaluated in vitro for their PARP-1 enzyme inhibitory activity.
# The procedure was according to the instructions provided by the manufacturer. […] 25 μL of 1 × Buffer was added to each well and 25 μL of appropriate 2 × NAD^+ standards were added to 1B to 1G and 2B to 2G well of 96-well plate for standard curve. 25 μL of 2 μM NAD was added to 1H and 2H for PARP control. 25 μL of 2 μM NAD was added to wells for test compounds, then serially diluted compounds were added, and 1 μL of DMSO was added to the standard well. 25 μL of PARP Mix minus enzyme was added to 1A to 1G and 25 μL of PARP Mix plus enzyme was added to PARP control and compounds well. […] Then 50 μL stop solution was added to each well, and mixed with pipette. […] Then draw the standard curve and calculate the inhibition rate of each test compound.
# [1] = tested on: HCC1937 (BRCA1-deficient) cells; experiment: CellTiter Glo assay for cell growth inhibition, HCC1937; details: HCC1937, 96 h, read-out: IC50 (BRCA-1, HCC1937)
# Method: (§1) The growth inhibition potential of test compounds was determined on BRCA1-deficient cell lines HCC1937 and BRCA2-deficient cell lines CAPAN-1. The stock solutions of test compounds were dissolved in DMSO and serially diluted to the required concentrations for 9 doses. […] 60 μL medium was removed from each well and plates were kept at room temperature for 30 min. 60 μL reagent (Celltiter Glo assay kit, Promega, Sunnyvale, CA, USA) per well was added and plates were shaked for 2 min. Cells were incubated avoiding light at room temperature for 30 min and the luminescence value was recorded by multiplate reader. GraphPad Prism 5 was used to plot effect-dose curves and calculate the IC50 values of compounds.
# in vitro = details: human, normal human lung fibroblast (HLF) cells
# Method: (§2) The cytotoxic potencies of test compounds were determined on normal human lung fibroblast (HLF) cells. Cells were seeded into 96-well plate at 3000 cells/well. The stock solutions of test compounds were dissolved in DMSO and serially diluted to the required concentrations for 7 doses, and the final testing concentrations for these compounds were 0.3, 1, 3, 10, 30, 100, 300 µM. […] The fraction of surviving cells after compound treatment was determined using the MTT assay.
# [2] = tested on: normal human lung fibroblast (HLF) cells; experiment: Cytotoxicity assay (MTT) on normal human lung fibroblast cells; details: 72 h
# Method: as §2
# [3] = tested on: CAPAN-1 (BRCA2-deficient) cells; experiment: CellTiter Glo assay for cell growth inhibition, CAPAN-1; details: CAPAN-1, 96 h, read-out: IC50 (BRCA-2, CAPAN-1)
# Method: as §1
# [4] = CellTiter Glo, nine concentrations
# T1 sequence (P09874 whole entry): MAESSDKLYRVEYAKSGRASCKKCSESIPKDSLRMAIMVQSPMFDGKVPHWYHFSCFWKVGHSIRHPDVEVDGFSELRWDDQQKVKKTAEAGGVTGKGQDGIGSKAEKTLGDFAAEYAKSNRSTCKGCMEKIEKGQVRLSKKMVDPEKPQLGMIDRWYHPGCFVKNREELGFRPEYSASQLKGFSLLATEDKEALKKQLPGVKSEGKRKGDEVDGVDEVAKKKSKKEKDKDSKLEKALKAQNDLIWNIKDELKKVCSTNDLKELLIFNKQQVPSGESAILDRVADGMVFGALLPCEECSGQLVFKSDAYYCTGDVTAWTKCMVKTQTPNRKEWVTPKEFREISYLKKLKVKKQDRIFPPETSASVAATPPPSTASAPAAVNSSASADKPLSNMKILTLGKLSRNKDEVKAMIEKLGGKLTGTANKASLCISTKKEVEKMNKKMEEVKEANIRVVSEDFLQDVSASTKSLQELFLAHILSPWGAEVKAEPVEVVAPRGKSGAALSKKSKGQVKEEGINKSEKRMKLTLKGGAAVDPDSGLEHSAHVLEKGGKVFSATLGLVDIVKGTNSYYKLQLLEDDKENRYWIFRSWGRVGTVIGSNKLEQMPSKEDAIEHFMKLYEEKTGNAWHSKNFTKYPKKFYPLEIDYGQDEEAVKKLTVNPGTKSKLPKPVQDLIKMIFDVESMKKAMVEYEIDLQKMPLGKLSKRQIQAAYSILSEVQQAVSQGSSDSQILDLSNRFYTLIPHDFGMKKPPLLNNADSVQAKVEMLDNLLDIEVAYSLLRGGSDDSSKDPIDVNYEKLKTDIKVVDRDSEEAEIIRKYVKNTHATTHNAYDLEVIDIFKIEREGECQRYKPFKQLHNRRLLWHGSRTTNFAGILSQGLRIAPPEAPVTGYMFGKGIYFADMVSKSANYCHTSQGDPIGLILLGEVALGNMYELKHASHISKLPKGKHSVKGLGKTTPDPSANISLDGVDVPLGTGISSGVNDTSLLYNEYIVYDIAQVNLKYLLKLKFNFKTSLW
smiles,measurement,setting,value
"NC(=O)c1scc2[nH]c(-c3ccc(C(=O)N4CCNCC4)cc3)nc12 [Compound 12, 2-(4-(Piperazine-1-carbonyl)phenyl)-1H-thieno[3,4-d]imidazole-4-carboxamide]",IC50,"PARP-1 enzyme; Table 1 series (12, 13a–j)",0.723 µM
"NC(=O)c1scc2[nH]c(-c3ccc(C(=O)N4CCN(C(=O)c5cccs5)CC4)cc3)nc12 [Compound 13a, 2-(4-(4-(Thiophene-2-carbonyl)piperazine-1-carbonyl)phenyl)-1H-thieno[3,4-d]imidazole-4-carboxamide]",IC50,"PARP-1 enzyme; Table 1 series (12, 13a–j)",2.57 µM
"NC(=O)c1scc2[nH]c(-c3ccc(C(=O)N4CCN(C(=O)c5ccccc5)CC4)cc3)nc12 [Compound 13b, 2-(4-(4-Benzoylpiperazine-1-carbonyl)phenyl)-1H-thieno[3,4-d]imidazole-4-carboxamide]",IC50,"PARP-1 enzyme; Table 1 series (12, 13a–j)",3.76 µM
same,melting point,,270 to 272 °C
"NC(=O)c1scc2[nH]c(-c3ccc(C(=O)N4CCN(C(=O)c5ccc(Br)cc5)CC4)cc3)nc12 [Compound 13c, 2-(4-(4-(4-Bromobenzoyl)piperazine-1-carbonyl)phenyl)-1H-thieno[3,4-d]imidazole-4-carboxamide]",IC50,"PARP-1 enzyme; Table 1 series (12, 13a–j)",1.87 µM
same,melting point,,294 to 296 °C
"NC(=O)c1scc2[nH]c(-c3ccc(C(=O)N4CCN(C(=O)c5ccc(Cl)cc5)CC4)cc3)nc12 [Compound 13d, 2-(4-(4-(4-Chlorobenzoyl)piperazine-1-carbonyl)phenyl)-1H-thieno[3,4-d]imidazole-4-carboxamide]",melting point,,247 to 249 °C
"Cc1ccc(C(=O)N2CCN(C(=O)c3ccc(-c4nc5c(C(N)=O)scc5[nH]4)cc3)CC2)cc1 [Compound 13e, 2-(4-(4-(4-Methylbenzoyl)piperazine-1-carbonyl)phenyl)-1H-thieno[3,4-d]imidazole-4-carboxamide]",melting point,,308 to 310 °C
"NC(=O)c1scc2[nH]c(-c3ccc(C(=O)N4CCN(Cc5ccccc5)CC4)cc3)nc12 [Compound 13f, 2-(4-(4-Benzylpiperazine-1-carbonyl)phenyl)-1H-thieno[3,4-d]imidazole-4-carboxamide]",IC50,"PARP-1 enzyme; Table 1 series (12, 13a–j)",3.86 µM
"NC(=O)c1scc2[nH]c(-c3ccc(C(=O)N4CCN(Cc5ccc(Br)cc5)CC4)cc3)nc12 [Compound 13g, 2-(4-(4-(4-Bromobenzyl)piperazine-1-carbonyl)phenyl)-1H-thieno[3,4-d]imidazole-4-carboxamide]",melting point,,285 to 288 °C
"N#Cc1ccc(CN2CCN(C(=O)c3ccc(-c4nc5c(C(N)=O)scc5[nH]4)cc3)CC2)cc1 [Compound 13h, 2-(4-(4-(4-Cyanobenzyl)piperazine-1-carbonyl)phenyl)-1H-thieno[3,4-d]imidazole-4-carboxamide]",IC50,"PARP-1 enzyme; Table 1 series (12, 13a–j)",3.72 µM
same,melting point,,284 to 286 °C
"Cc1ccc(CN2CCN(C(=O)c3ccc(-c4nc5c(C(N)=O)scc5[nH]4)cc3)CC2)cc1 [Compound 13i, 2-(4-(4-(4-Methylbenzyl)piperazine-1-carbonyl)phenyl)-1H-thieno[3,4-d]imidazole-4-carboxamide]",melting point,,272 to 273 °C
"NC(=O)c1scc2[nH]c(-c3ccc(C(=O)N4CCN(C(=O)C5CC5)CC4)cc3)nc12 [Compound 13j, 2-(4-(4-(Cyclopropanecarbonyl)piperazine-1-carbonyl)phenyl)-1H-thieno[3,4-d]imidazole-4-carboxamide]",IC50,"PARP-1 enzyme; Table 1 series (12, 13a–j)",1.53 µM
same,melting point,,272 to 273 °C
"NC(=O)c1scc2[nH]c(-c3ccccc3)nc12 [Compound 16a, 2-Phenyl-1H-thieno[3,4-d]imidazole-4-carboxamide]",IC50,PARP-1 enzyme; Table 2 series (16a–n),0.827 µM
same,melting point,,256 to 257 °C
"NC(=O)c1scc2[nH]c(-c3ccc(F)cc3)nc12 [Compound 16b, 2-(4-Fluorophenyl)-1H-thieno[3,4-d]imidazole-4-carboxamide]",IC50,PARP-1 enzyme; Table 2 series (16a–n),0.738 µM
same,melting point,,244 to 246 °C
"NC(=O)c1scc2[nH]c(-c3ccc(Cl)cc3)nc12 [Compound 16c, 2-(4-Chlorophenyl)-1H-thieno[3,4-d]imidazole-4-carboxamide]",IC50,PARP-1 enzyme; Table 2 series (16a–n),0.354 µM
same,melting point,,245 to 246 °C
"NC(=O)c1scc2[nH]c(-c3ccccc3Cl)nc12 [Compound 16d, 2-(2-Chlorophenyl)-1H-thieno[3,4-d]imidazole-4-carboxamide]",IC50,PARP-1 enzyme; Table 2 series (16a–n),1.49 µM
same,melting point,,202 to 204 °C
"NC(=O)c1scc2[nH]c(-c3c(Cl)cccc3Cl)nc12 [Compound 16e, 2-(2,6-Dichlorophenyl)-1H-thieno[3,4-d]imidazole-4-carboxamide]",melting point,,210 to 212 °C
"NC(=O)c1scc2[nH]c(-c3ccc(C(F)(F)F)cc3)nc12 [Compound 16f, 2-(4-(Trifluoromethyl)phenyl)-1H-thieno[3,4-d]imidazole-4-carboxamide]",IC50,PARP-1 enzyme; Table 2 series (16a–n),0.548 µM
same,melting point,,283 to 285 °C
"NC(=O)c1scc2[nH]c(-c3cccc(C(F)(F)F)c3)nc12 [Compound 16g, 2-(3-(Trifluoromethyl)phenyl)-1H-thieno[3,4-d]imidazole-4-carboxamide]",IC50,[1]; Homo sapiens,31.3 ± 0.35 µM
same,IC50,PARP-1 enzyme; Table 2 series (16a–n),0.151 µM
same,IC50 at 72 h,in vitro,77.6 ± 1.5 µM
same,Inhibition Rate,[2]; 0.3 µM,−1.65%
same,Inhibition Rate,[2]; 1 µM,−1.02%
same,Inhibition Rate,[2]; 3 µM,−0.63%
same,Inhibition Rate,[2]; 10 µM,0.76%
same,Inhibition Rate,[2]; 30 µM,4.13%
same,Inhibition Rate,[2]; 100 µM,69.88%
same,Inhibition Rate,[2]; 300 µM,99.40%
same,IC50,[3]; Homo sapiens,38.6 ± 6.75 µM
"NC(=O)c1scc2[nH]c(-c3ccccc3C(F)(F)F)nc12 [Compound 16h, 2-(2-(Trifluoromethyl)phenyl)-1H-thieno[3,4-d]imidazole-4-carboxamide]",melting point,,241 to 243 °C
"NC(=O)c1scc2[nH]c(-c3ccc([N+](=O)[O-])cc3)nc12 [Compound 16i, 2-(4-Nitrophenyl)-1H-thieno[3,4-d]imidazole-4-carboxamide]",IC50,[1]; Homo sapiens,32.9 ± 4.21 µM
same,IC50,PARP-1 enzyme; Table 2 series (16a–n),0.136 µM
same,IC50 at 72 h,in vitro,94.1 ± 2.2 µM
same,Inhibition Rate,[2]; 0.3 µM,−0.05%
same,Inhibition Rate,[2]; 1 µM,1.33%
same,Inhibition Rate,[2]; 3 µM,0.99%
same,Inhibition Rate,[2]; 10 µM,3.37%
same,Inhibition Rate,[2]; 30 µM,2.56%
same,Inhibition Rate,[2]; 100 µM,55.26%
same,Inhibition Rate,[2]; 300 µM,99.63%
same,IC50,[3]; Homo sapiens,26.8 ± 1.55 µM
"COc1ccc(-c2nc3c(C(N)=O)scc3[nH]2)cc1 [Compound 16j, 2-(4-Methoxyphenyl)-1H-thieno[3,4-d]imidazole-4-carboxamide]",IC50,[1]; Homo sapiens,55.14 ± 0.24 µM
same,IC50,PARP-1 enzyme; Table 2 series (16a–n),0.102 µM
same,IC50 at 72 h,in vitro,> 300 µM
same,Inhibition Rate,[2]; 0.3 µM,0.68%
same,Inhibition Rate,[2]; 1 µM,2.85%
same,Inhibition Rate,[2]; 3 µM,2.68%
same,Inhibition Rate,[2]; 10 µM,6.95%
same,Inhibition Rate,[2]; 30 µM,9.43%
same,Inhibition Rate,[2]; 100 µM,12.63%
same,Inhibition Rate,[2]; 300 µM,32.37%
same,IC50,[3]; Homo sapiens,46.6 ± 0.62 µM
"COc1cccc(-c2nc3c(C(N)=O)scc3[nH]2)c1 [Compound 16k, 2-(3-Methoxyphenyl)-1H-thieno[3,4-d]imidazole-4-carboxamide]",IC50,PARP-1 enzyme; Table 2 series (16a–n),1.49 µM
same,melting point,,230 to 242 °C
"Cc1ccc(-c2nc3c(C(N)=O)scc3[nH]2)cc1 [Compound 16l, 2-(p-Tolyl)-1H-thieno[3,4-d]imidazole-4-carboxamide]",IC50,[1]; Homo sapiens,49.2 ± 5.43 µM
same,IC50,PARP-1 enzyme; Table 2 series (16a–n),0.043 µM
same,IC50 at 72 h,in vitro,> 300 µM
same,Inhibition Rate,[2]; 0.3 µM,0.42%
same,Inhibition Rate,[2]; 1 µM,3.80%
same,Inhibition Rate,[2]; 3 µM,7.12%
same,Inhibition Rate,[2]; 10 µM,10.16%
same,Inhibition Rate,[2]; 30 µM,13.65%
same,Inhibition Rate,[2]; 100 µM,23.20%
same,Inhibition Rate,[2]; 300 µM,27.94%
same,IC50,[3]; Homo sapiens,38.8 ± 1.6 µM
"Cc1cccc(-c2nc3c(C(N)=O)scc3[nH]2)c1 [Compound 16m, 2-(m-Tolyl)-1H-thieno[3,4-d]imidazole-4-carboxamide]",IC50,PARP-1 enzyme; Table 2 series (16a–n),5.79 µM
same,melting point,,254 to 255 °C
"Cc1ccccc1-c1nc2c(C(N)=O)scc2[nH]1 [Compound 16n, 2-(o-Tolyl)-1H-thieno[3,4-d]imidazole-4-carboxamide]",IC50,PARP-1 enzyme; Table 2 series (16a–n),0.328 µM
same,melting point,,222 to 223 °C
"O=C(c1cc(Cc2n[nH]c(=O)c3ccccc23)ccc1F)N1CCN(C(=O)C2CC2)CC1 [Olaparib, olaparib, reference compound]",IC50,[1]; Homo sapiens,133 ± 14.4 µM
same,IC50 at 72 h,in vitro,134 ± 3.14 µM
same,Inhibition Rate,[2]; 0.3 µM,1.88%
same,Inhibition Rate,[2]; 1 µM,1.83%
same,Inhibition Rate,[2]; 3 µM,1.10%
same,Inhibition Rate,[2]; 10 µM,1.37%
same,Inhibition Rate,[2]; 30 µM,1.04%
same,Inhibition Rate,[2]; 100 µM,29.60%
same,Inhibition Rate,[2]; 300 µM,91.45%
same,IC50,[3]; Homo sapiens,13.4 ± 1.16 µM
"C[C@]1(c2nc3c(C(N)=O)cccc3[nH]2)CCCN1 [Veliparib, veliparib, reference compound]",IC50,[1]; [4],127 ± 18.1 µM
same,IC50 at 72 h,in vitro,~200 µM
same,Inhibition Rate,[2]; 0.3 µM,1.00%
same,Inhibition Rate,[2]; 1 µM,−0.28%
same,Inhibition Rate,[2]; 3 µM,−1.20%
same,Inhibition Rate,[2]; 10 µM,−1.35%
same,Inhibition Rate,[2]; 30 µM,−0.06%
same,Inhibition Rate,[2]; 100 µM,−0.45%
same,Inhibition Rate,[2]; 300 µM,93.64%
same,IC50,[3]; [4],57.7 ± 12.4 µM
